The record followed here is the supplement of paper PMC10307832.

Common to all, as to test: relative viability (nuclei count vs DMSO), 5 days (fraction); higher = more cells survive
Compound in test [1]: C1=CC2=C(C=C(C(=C2N=C1)O)N=NC3=CC4=C(C=C3)C=C(C=C4)S(=O)(=O)O)S(=O)(=O)O + Cc1cc(Nc2cc(N3CCN(C)CC3)nc(Sc3ccc(NC(=O)C4CC4)cc3)n2)n[nH]1 [Tozasertib] (partner 0.1 µM)
The method, boiled down: (§1)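 Five library-drug doses in √10 steps were combined with a fixed anchor-drug dose, or a single drug was given alone, by pin tool to lung cancer cell lines in 1536-well plates the day after seeding. Nuclei were stained and counted after 5 days. Relative viability is the nuclei count in treated wells over that in vehicle wells, taken as the median of duplicate plates.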

Compound in test [2]: C1=CC2=C(C=C(C(=C2N=C1)O)N=NC3=CC4=C(C=C3)C=C(C=C4)S(=O)(=O)O)S(=O)(=O)O + CC(=O)c1c(C)c2cnc(Nc3ccc(N4CCNCC4)cn3)nc2n(C2CCCC2)c1=O [Palbociclib] (partner 0.5 µM)
A digest of the protocol:
as §1

Compound in test [3]: C1=CC2=C(C=C(C(=C2N=C1)O)N=NC3=CC4=C(C=C3)C=C(C=C4)S(=O)(=O)O)S(=O)(=O)O
A digest of the protocol:
(§2)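 Viability was defined as treated-well nuclei divided by vehicle-well nuclei, with the median taken over replicate plates. Cells from lung cancer lines sat overnight at 37 °C in 1536-well plates, received five √10-spaced library-drug doses by pinning on vehicle-anchored plates, and grew 5 days without medium change before one-step fixation, permeabilisation and Hoechst staining, 4× imaging and MetaXpress nuclear counts. Only plates with control CV under 25% and at least one doubling were kept.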

Compound in test [4]: O=C(NC1CCNCC1)c1n[nH]cc1NC(=O)c1c(Cl)cccc1Cl [AT-7519]
A digest of the protocol: as §2

With UMC-11, the relative viability in test [1] (first compound 0.08 µM) stood at 0.187; in test [1] (first compound 0.253 µM) it was 0.193; in test [1] (first compound 0.8 µM), 0.212; in test [1] (first compound 2.53 µM), 0.205; in test [1] (first compound 8 µM), 0.179; in test [2] (first compound 0.08 µM) it was 0.325. Moreover, the relative viability in test [2] (first compound 0.253 µM) was 0.329; in test [2] (first compound 0.8 µM) it was 0.326; in test [2] (first compound 2.53 µM), 0.339; in test [2] (first compound 8 µM), 0.324; in test [3] (0.08 µM) it was 1.11; in test [3] (0.253 µM) it was 0.942. Besides, the relative viability in test [3] (0.8 µM) came to 0.925; in test [3] (2.53 µM), 1.02; in test [3] (8 µM), 0.92; in test [4] (0.01 µM), 0.951; in test [4] (0.03162 µM), 0.934; in test [4] (0.3162 µM), 0.765. For the same cell line, in test [4] (1 µM), the relative viability is 0.499.
